Test results taken from the supplement of paper PMC10307832.

Columns and labels:
[1] = compound: CC1CC(=O)N(C2=CN=C(N=C2N1C3CCCC3)NC4=C(C=C(C=C4)C(=O)NC5CCN(CC5)C)OC)C [NPK76-II-72-1] + COc1cc2c(Oc3ccc(NC(=O)C4(C(=O)Nc5ccc(F)cc5)CC4)cc3F)ccnc2cc1OCCCN1CCOCC1 [Foretinib] (partner 0.25 µM); assay: relative viability (nuclei count vs DMSO), 5 days (fraction); higher = more cells survive
How it was run: (§1)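 Lung cancer cell lines were seeded in 1536-well plates and dosed by pin tool the next day, with either a single drug or a fixed anchor-drug dose combined with five library-drug doses (not always all listed) spaced in √10 steps. Five days later, one step fixed the cells and stained their nuclei (final 0.05% Triton X-100, 1% formaldehyde, 1 ug/ml Hoechst), and nuclei were counted on 4× images. Relative viability is the nuclei count in treated wells divided by the count in vehicle wells, and each value is the median of duplicate plates.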

BI-2536 + Tozasertib = compound: CC[C@@H]1C(=O)N(C)c2cnc(Nc3ccc(C(=O)NC4CCN(C)CC4)cc3OC)nc2N1C1CCCC1 [BI-2536] + Cc1cc(Nc2cc(N3CCN(C)CC3)nc(Sc3ccc(NC(=O)C4CC4)cc3)n2)n[nH]1 [Tozasertib] (partner 0.1 µM); assay: as above
How it was run: as §1

| Cell Line | relative viability ([1]; first compound 0.01 µM) | relative viability ([1]; first compound 0.03162 µM) | relative viability ([1]; first compound 0.1 µM) | relative viability ([1]; first compound 0.3162 µM) | relative viability ([1]; first compound 1 µM) | relative viability (BI-2536 + Tozasertib; first compound 0.01 µM) | relative viability (BI-2536 + Tozasertib; first compound 0.03162 µM) | relative viability (BI-2536 + Tozasertib; first compound 0.1 µM) | relative viability (BI-2536 + Tozasertib; first compound 0.3162 µM) | relative viability (BI-2536 + Tozasertib; first compound 1 µM) |
| --- | --- | --- | --- | --- | --- | --- | --- | --- | --- | --- |
| NCI-H1975 | 1.01 | 0.981 | 0.826 | 0.929 | 0.943 | 0.664 | 0.673 | 0.393 | 0.116 | 0.0975 |
| CAL-12T | 1.11 | 1.18 | 1.03 | 1.1 | 1.3 | 0.291 | 0.294 | 0.2 | 0.194 | 0.186 |
| NCI-H1623 | 0.836 | 0.872 | 0.914 | 0.566 | 0.998 | 0.478 | 0.448 | 0.383 | 0.402 | 0.328 |
| HCC-44 | – | – | – | – | – | 0.967 | 0.333 | 0.262 | 0.143 | 0.216 |
| EKVX | 0.428 | 0.878 | 0.773 | 0.3 | 1.15 | 0.321 | 0.482 | 0.394 | 0.202 | 0.132 |
| NCI-H1651 | 0.811 | 0.826 | 0.825 | 0.74 | 0.953 | 0.685 | 0.795 | 0.429 | 0.104 | 0.0989 |
| NCI-H1944 | 0.9 | 0.936 | 0.899 | 0.808 | 0.992 | 0.25 | 0.268 | 0.234 | 0.234 | 0.195 |
| NCI-H1703 | 0.363 | – | 0.316 | 0.35 | 0.343 | – | – | – | – | – |
| Calu-6 | 0.833 | 0.991 | 0.772 | 0.823 | 0.913 | – | – | – | – | – |
| EBC-1 | 0.103 | 0.121 | 0.0919 | 0.114 | 0.108 | – | – | – | – | – |
| SW 1573 | 0.997 | 1.02 | 0.914 | 0.963 | 0.824 | 0.192 | 0.166 | 0.159 | 0.127 | 0.121 |
| A-427 | 0.923 | 1.04 | 1.08 | 1.14 | 1.07 | 0.187 | 0.211 | 0.189 | 0.15 | 0.146 |
| NCI-H2347 | 0.844 | 1.1 | 0.935 | 0.424 | 0.917 | – | 0.503 | 0.465 | 0.295 | 0.352 |
| NCI-H1355 | 0.929 | 0.932 | 0.926 | 0.852 | 0.982 | 0.528 | 0.434 | 0.295 | 0.212 | 0.195 |
| NCI-H358 | 0.575 | 0.695 | 0.915 | – | 0.769 | 0.113 | 0.105 | 0.103 | 0.0917 | 0.0924 |
| PC-3 [JPC-3] | 1.04 | 1.06 | 0.96 | 0.952 | 1.12 | 0.889 | 0.693 | 0.707 | 0.289 | 0.313 |
| NCI-H2228 | 0.845 | 1.07 | 0.794 | 0.914 | 0.832 | 0.285 | 0.195 | 0.187 | 0.139 | 0.11 |
| HOP-62 | 1.06 | 1.27 | 0.993 | 1.15 | 1.08 | 0.337 | 0.424 | 0.29 | 0.204 | 0.219 |
| HARA | 0.913 | 1.06 | 0.797 | 0.819 | 1.1 | 0.109 | 0.127 | 0.114 | 0.0998 | 0.128 |

| Cell Line | relative viability ([1]; first compound 0.01 µM) | relative viability ([1]; first compound 0.03162 µM) | relative viability ([1]; first compound 0.1 µM) | relative viability ([1]; first compound 0.3162 µM) | relative viability ([1]; first compound 1 µM) | relative viability (BI-2536 + Tozasertib; first compound 0.01 µM) | relative viability (BI-2536 + Tozasertib; first compound 0.03162 µM) | relative viability (BI-2536 + Tozasertib; first compound 0.1 µM) | relative viability (BI-2536 + Tozasertib; first compound 0.3162 µM) | relative viability (BI-2536 + Tozasertib; first compound 1 µM) |
| --- | --- | --- | --- | --- | --- | --- | --- | --- | --- | --- |
| NCI-H838 | 0.956 | 0.99 | 1.1 | 0.949 | 1.09 | 0.239 | 0.269 | 0.241 | 0.229 | 0.225 |
| NCI-H1755 | 0.968 | 0.916 | 0.883 | 0.893 | 0.917 | 0.559 | 0.595 | 0.477 | 0.344 | 0.317 |
| HCC-78 | 0.561 | 0.549 | 0.489 | 0.507 | 0.616 | 0.405 | 0.304 | 0.325 | 0.253 | 0.259 |
| IA-LM | 1.06 | 1.18 | 1.18 | 1.12 | 1.26 | – | – | – | – | – |
| NCI-H322M | 1.06 | 1.09 | 0.976 | 0.923 | 0.978 | 0.517 | 0.451 | 0.571 | 0.445 | 0.377 |
| NCI-H3122 | 0.93 | 1.01 | 0.902 | 0.866 | 0.958 | 0.363 | 0.207 | 0.266 | 0.297 | 0.246 |
| COR-L23 | 0.915 | 0.977 | 1.01 | 0.9 | 0.979 | 0.196 | 0.189 | 0.137 | 0.145 | 0.151 |
| NCI-H2087 | 1.04 | 1.06 | 1.09 | 1.12 | 1.32 | 0.25 | 0.214 | 0.155 | 0.119 | 0.12 |
| LC-2-ad | 0.908 | 0.948 | 0.94 | 0.809 | 1.08 | 0.412 | 0.278 | 0.279 | 0.318 | 0.383 |
| NCI-H1915 | 1.09 | 1.13 | 1.1 | 1.06 | 1.09 | 0.486 | 0.292 | 0.232 | 0.171 | 0.166 |
| NCI-H1793 | 0.659 | 0.687 | 0.747 | 0.559 | 0.533 | 0.331 | 0.33 | 0.277 | 0.217 | 0.186 |
| NCI-H2023 | 0.659 | 0.797 | – | 0.624 | 1.07 | 0.389 | 0.461 | 0.234 | 0.11 | 0.108 |
| COR-L 105 | 0.865 | 1.25 | 1.06 | 1.03 | 0.89 | 0.351 | 0.408 | 0.299 | 0.306 | 0.333 |
| RERF-LC-KJ | 0.768 | 0.899 | 0.894 | 0.808 | 0.884 | 0.496 | 0.405 | 0.275 | 0.224 | 0.226 |
| LXF-289 | 0.945 | 1.03 | 0.896 | 0.948 | 0.961 | 0.216 | 0.214 | 0.206 | 0.0925 | 0.11 |
| PC-14 | 0.936 | 1.1 | 0.894 | 0.928 | 1.01 | 0.577 | 0.568 | 0.548 | 0.045 | 0.0586 |
| NCI-H650 | 1.01 | 1.04 | 0.971 | 0.918 | 1.04 | 0.64 | 0.529 | 0.358 | 0.181 | 0.16 |
| NCI-H1666 | 0.909 | 1.04 | 0.855 | 0.918 | 1.06 | 0.621 | 0.52 | 0.415 | 0.369 | 0.372 |
| NCI-H2085 | 0.792 | 0.923 | 0.902 | 0.781 | 1.15 | 0.787 | 0.737 | 0.478 | 0.368 | 0.438 |

| Cell Line | relative viability ([1]; first compound 0.01 µM) | relative viability ([1]; first compound 0.03162 µM) | relative viability ([1]; first compound 0.1 µM) | relative viability ([1]; first compound 0.3162 µM) | relative viability ([1]; first compound 1 µM) | relative viability (BI-2536 + Tozasertib; first compound 0.01 µM) | relative viability (BI-2536 + Tozasertib; first compound 0.03162 µM) | relative viability (BI-2536 + Tozasertib; first compound 0.1 µM) | relative viability (BI-2536 + Tozasertib; first compound 0.3162 µM) | relative viability (BI-2536 + Tozasertib; first compound 1 µM) |
| --- | --- | --- | --- | --- | --- | --- | --- | --- | --- | --- |
| NCI-H1734 | 0.84 | 0.792 | 0.857 | 0.84 | 1.22 | 0.251 | 0.271 | 0.26 | 0.253 | 0.26 |
| NCI-H2126 | 1.47 | 1.23 | 0.916 | 1.14 | 1.17 | 0.884 | 0.373 | 0.296 | 0.236 | 0.269 |
| EMC-BAC-2 | 1.05 | 1.07 | 1.07 | 0.945 | 1.2 | 0.302 | 0.302 | 0.201 | 0.212 | 0.209 |
| NCI-H1993 | 0.801 | 0.791 | 0.868 | 0.604 | 0.808 | 0.497 | 0.615 | 0.609 | 0.617 | 0.59 |
| NCI-H520 | 0.648 | 0.854 | 0.674 | 0.867 | 0.794 | 0.429 | 0.424 | 0.365 | 0.395 | 0.361 |
| NCI-H647 | 1.12 | 1.19 | 1.35 | 1.04 | 1.19 | 0.34 | 0.433 | 0.209 | 0.132 | 0.103 |
| SK-LU-1 | 0.814 | 0.83 | 0.879 | 0.833 | 0.893 | 0.323 | 0.317 | 0.323 | 0.218 | 0.176 |
| ChaGo-K-1 | 0.923 | 0.91 | 0.994 | 0.92 | 0.882 | 0.216 | 0.227 | 0.219 | 0.211 | 0.239 |
| NCI-H522 | – | – | – | – | – | 0.488 | 0.581 | 0.634 | 0.447 | 0.412 |
| NCI-H1299 | 1.11 | 1.12 | 1.2 | 1.07 | 1.03 | – | – | – | – | – |
| NCI-H1650 | 1.16 | 1.06 | 0.966 | 0.943 | 1.37 | 0.403 | 0.283 | 0.252 | 0.179 | 0.196 |
| NCI-H2009 | 0.843 | 1.25 | 1.22 | 1.21 | 1.23 | 0.769 | 0.667 | 0.459 | 0.321 | 0.23 |
| LOU-NH91 | 0.871 | 0.933 | 0.948 | 0.795 | 1 | 0.694 | 0.543 | 0.439 | 0.34 | 0.234 |
| NCI-H2405 | 1.05 | 1.08 | 0.999 | 1.03 | 1.17 | 0.73 | 0.566 | 0.381 | 0.296 | 0.33 |
| NCI-H1648 | – | – | – | – | – | 0.437 | 0.414 | 0.336 | 0.159 | 0.22 |
| LCLC-97TM1 | 0.935 | 0.973 | 0.85 | 0.881 | 0.948 | 0.236 | 0.184 | 0.176 | 0.182 | 0.178 |
| A549 | 0.937 | 0.979 | 0.93 | 0.856 | 1.05 | – | – | – | – | – |
| NCI-H1563 | 0.84 | 0.875 | 0.933 | 0.923 | 0.845 | – | – | – | – | – |
